# Experimental data taken from patent US8377422B2, “Carboxamide derivatives having cooling properties” (Givaudan S.A., priority 2007, dated 2013).
# How the values were obtained:
# [1] = test system: panelists; assay: Cooling intensity: panel tasting of aqueous solutions against menthol at 2 ppm; format: in vivo, human; conditions: for Concentration: aqueous solution with cooling intensity similar to or slightly higher than menthol at 2 ppm, tasted by small group of panelists
# [2] = test system: panelist; assay: Application in toothpaste: cooling sensation after brushing; format: in vivo, human; conditions: toothgel base with 0.10 g of 10% by weight ethanol solution and 0.30 g saccharin; teeth brushed, mouth rinsed with water
# Procedure: 0.10 g of (1R,2S,5R)—N-(2-hydroxy-3-phenoxypropyl)-2-isopropyl-5-methylcyclohexane-carboxamide (at 10% by weight solved in ethanol) and 0.30 g saccharin were mixed in a toothgel base.
# A piece of the thus prepared toothpaste was put on a toothbrush and a panelist's teeth were brushed. The mouth was rinsed with water and the water spat out. […] The cooling sensation was perceived for over 50 minutes.
SMILES,Concentration [1],further results
"COCCNC(=O)[C@@H]1C[C@H](C)CC[C@H]1C(C)C [(1R,2S,5R)-2-isopropyl-N-(2-methoxyethyl)-5-methylcyclohexanecarboxamide]",1.0 ppm,
"CC(C)OCCCNC(=O)[C@@H]1C[C@H](C)CC[C@H]1C(C)C [(1R,2S,5R)-N-(3-isopropoxypropyl)-2-isopropyl-5-methylcyclohexanecarboxamide]",0.1 ppm,
"CC(C)[C@@H]1CC[C@@H](C)C[C@H]1C(=O)NCCCOc1ccccn1 [Ex. 2.5, (1R,2S,5R)-2-isopropyl-5-methyl-N-(3-(pyridin-2-yloxy)propyl)cyclohexane-carboxamide]",0.02 ppm,
"CC(C)[C@@H]1CC[C@@H](C)C[C@H]1C(=O)NCCOc1ccccc1 [Ex. 2.7, (1R,2S,5R)-2-isopropyl-5-methyl-N-(2-phenoxyethyl)cyclohexanecarboxamide]",0.01 ppm,"cooling intensity relative to prior art compound (1R,2S,5R)-2-isopropyl-N-(2-methoxyethyl)-5-methylcyclohexane-carboxamide ([1]; compared with the prior art compound): about 100 times higher"
"Cc1ccccc1OCCCNC(=O)[C@@H]1C[C@H](C)CC[C@H]1C(C)C [Example 1, (1R,2S,5R)-2-isopropyl-5-methyl-N-(3-(o-tolyloxy)propyl)cyclohexane-carboxamide]",,melting point: 89.4 to 91.1 °C
"CC(C)[C@@H]1CC[C@@H](C)C[C@H]1C(=O)NCC(O)COc1ccccc1 (stereo partly drawn) [Example 2.2, (1R,2S,5R)—N-(2-hydroxy-3-phenoxypropyl)-2-isopropyl-5-methylcyclohexane-carboxamide]",,cooling sensation felt by the panelist [2]: long lasting cooling sensation; duration of perceived cooling sensation [2]: over 50 minutes
CC1CCC(C(C)C)C(O)C1 (stereo not shown) [I-Menthol],2.0 ppm,
"CCNC(=O)C1CC(C)CCC1C(C)C (stereo not shown) [WS-3, N-ethyl p-menthanecarboxamide]",1.5 ppm,
